Measurements published in patent publication US20080227638A1, “Use of abscisic acid to enhance growth control” (priority 2007, published 2008).

Tests used:
Type in all cases: in vivo
Kentucky bluegrass = assay: Greenhouse Kentucky bluegrass height and quality, ABA and trinexapac-ethyl (Example 1); conditions: for Quality: visual 0-9 scale
Experimental: Greenhouse studies were conducted at the Research Farm of Valent BioSciences Corporation (Long Grove, Ill.). Grasses were grown in pots (18 cm in diameter and 18 cm in height) filled with Promix BX (available from Premier Horticulture Inc. Quakertown, Pa.). Grass was irrigated daily by an overhead irrigation system. The irrigation system was set up with multiple Tornado Mist Spray Heads (10 GPH at 40 PSI-Wetted diameter, NDS/Raindrip, Woodland Hills, Calif.). Spray heads were 1-meter apart from each other and 75 cm above grass canopy. Grass was cut with a scissor at 2.5 cm height and fertilizer (1 g/L all purpose fertilizer 20-20-20, available from The Scotts Company, Marysville, Ohio) was applied once per week.
(§1) Chemical solutions were prepared with distilled water. Tween 20 (0.05% v/v) was used as an, adjuvant. Both trinexapac-ethyl (commercial product Primo Maxx, 11.3% active ingredient) and paclobutrazol (commercial product Trimmit 2SC, 22.3% active ingredient) were purchased from Syngenta Crop Protection Inc. (Greensboro, N.C.). Uniconazole-P (commercial product Sumagic, 0.55% active ingredient) was obtained from Valent U.S.A. Corporation (Walnut Creek, Calif.).
(§2) When treated with paclobutrazol or uniconazole-P, turfgrass received irrigation within 24 hours after application to flush chemicals to the root zone. After treatment, turfgrasses were arranged in a randomized complete block experimental design. Turfgrass quality, turfgrass height or clip fresh weight was measured on assigned dates. Turfgrass quality was visually rated on a 0-9 scale based on the color, uniformity and density of the grass with 0 as the worst and 9 as the best. Turfgrass height was measured as the distance between canopy surface and soil. Clips were collected from each plot; all plots were cut to a uniform height.
(§3) All experiments were randomized complete block experimental design. Data were analyzed by analysis of variance. Duncan's new multiple range tests at α=0.05 were used for mean separations.
Kentucky bluegrass sod (unknown variety) was purchased from Deak sod farms, Inc. (Union Grove, Wis.). Grass was grown in the greenhouse in pots (n=6 pots per treatment) for establishment before treatment. […] Tween 20 (0.05% w/v) was included as an adjuvant. Turfgrass canopy was not cut during the experimental period.

creeping bentgrass = assay: Golf course green creeping bentgrass height, ABA and trinexapac-ethyl (Example 4)
Experimental: (§4) Field studies were conducted at the nursery green or the practice green at Countryside golf course (Mundelein, Ill.). Both greens were sand based and growing Penncross creeping bentgrass. Grass was managed with typical Illinois golf course management practices.
as §1, §2, §3
(§5) Tween 20 (0.05% w/v) was included as an adjuvant.

creeping bentgrass green = assay: Soil moisture of creeping bentgrass green, ABA and trinexapac-ethyl (Example 8); conditions: 25 ppm trinexapac-ethyl
Experimental: as §4, §1, §2, §3, §5

[1] = tested on: tomato (variety: Rutgers); assay: Tomato leaf transpiration, porometer (Example 9)
Excerpt: (§6) Tomato (variety: Rutgers) seeds were sown in 18-cell flat filled with Promix PGX (available from Premier Horticulture Inc. Quakertown, Pa.) and grown for 3 weeks to allow for germination and initial growth. Plants were then transplanted into pots (18 cm in diameter and 18 cm in height), filled with Promix BX (available from Premier Horticulture Inc. Quakertown, Pa.), and grown for one week before the chemical treatment. Plants received daily irrigation and weekly fertilizer (1 g/L all purpose fertilizer 20-20-20, available from The Scotts Company, Marysville, Ohio).
(§7) During the chemical treatment, a 15 mL (2.5 mL/plant) solution was foliar sprayed on the tomato canopy. Leaf transpiration rates were measured using a LI-1600 Steady State Porometer (LI-Cor, Lincoln, Nebr.) at 1, 2, 3, 4, 7, 10 and 15 days after treatment. Leaf transpiration rate was normalized to the percentage of control plant to minimize the experimental errors caused by environmental factors. Plant height was measured at 0, 2, 4, 7, 10 and 15 days after treatment. Growth rate was calculated based on the changes of plant height in certain intervals. The plants were harvested and the leaf number was counted at 15 days after treatment.

[2] = tested on: tomato (variety: Rutgers); assay: Tomato plant height, growth rate and leaf number (Example 9); conditions: for Leaf number: 15 days after treatment
Excerpt: as §6, §7

[3] = 40 ppm trinexapac-ethyl, 23 days after treatment
[4] = 80 ppm trinexapac-ethyl, 23 days after treatment
[5] = 160 ppm trinexapac-ethyl, 23 days after treatment
[6] = 250 ppm trinexapac-ethyl, day 2 after treatment
[7] = 250 ppm trinexapac-ethyl, day 4 after treatment
[8] = 250 ppm trinexapac-ethyl, day 7 after treatment
[9] = 250 ppm trinexapac-ethyl, day 10 after treatment
[10] = 250 ppm trinexapac-ethyl, day 15 after treatment
[11] = 500 ppm trinexapac-ethyl, day 2 after treatment
[12] = 500 ppm trinexapac-ethyl, day 4 after treatment
[13] = 500 ppm trinexapac-ethyl, day 7 after treatment
[14] = 500 ppm trinexapac-ethyl, day 10 after treatment
[15] = 500 ppm trinexapac-ethyl, day 15 after treatment
[16] = 1000 ppm trinexapac-ethyl, day 2 after treatment
[17] = 1000 ppm trinexapac-ethyl, day 4 after treatment
[18] = 1000 ppm trinexapac-ethyl, day 7 after treatment
[19] = 1000 ppm trinexapac-ethyl, day 10 after treatment
[20] = 1000 ppm trinexapac-ethyl, day 15 after treatment
[21] = 2000 ppm trinexapac-ethyl, day 2 after treatment
[22] = 2000 ppm trinexapac-ethyl, day 4 after treatment
[23] = 2000 ppm trinexapac-ethyl, day 7 after treatment
[24] = 2000 ppm trinexapac-ethyl, day 10 after treatment
[25] = 2000 ppm trinexapac-ethyl, day 15 after treatment

## CCOC(=O)C1CC(=O)C(=C(O)C2CC2)C(=O)C1 (stereo not shown) [trinexapac-ethyl]
Kentucky bluegrass; 40 ppm trinexapac-ethyl, 7 days after treatment
  Turfgrass height: 9.5 cm
Kentucky bluegrass; [3]
  Turfgrass height: 18.0 cm
  Quality: 7.8
Kentucky bluegrass; 80 ppm trinexapac-ethyl, 7 days after treatment
  Turfgrass height: 7.4 cm
Kentucky bluegrass; [4]
  Turfgrass height: 17.3 cm
  Quality: 8.0
Kentucky bluegrass; 160 ppm trinexapac-ethyl, 7 days after treatment
  Turfgrass height: 6.1 cm
Kentucky bluegrass; [5]
  Turfgrass height: 13.3 cm
  Quality: 7.0
Creeping bentgrass; 12.5 ppm trinexapac-ethyl, 7 days after treatment
  Turfgrass height: 6.0 cm
Creeping bentgrass; 12.5 ppm trinexapac-ethyl, 14 days after treatment
  Turfgrass height: 8.5 cm
Creeping bentgrass; 50 ppm trinexapac-ethyl, 7 days after treatment
  Turfgrass height: 4.3 cm
Creeping bentgrass; 50 ppm trinexapac-ethyl, 14 days after treatment
  Turfgrass height: 5.5 cm
Creeping bentgrass green; 2 days after treatment
  Soil moisture: 11.2%
Creeping bentgrass green; 7 days after treatment
  Soil moisture: 12.7%
[1]; 250 ppm trinexapac-ethyl, day 1 after treatment
  Transpiration: 91 % of control
[1]; [6]
  Transpiration: 99 % of control
[1]; 250 ppm trinexapac-ethyl, day 3 after treatment
  Transpiration: 91 % of control
[1]; [7]
  Transpiration: 95 % of control
[1]; [8]
  Transpiration: 100 % of control
[1]; [9]
  Transpiration: 98 % of control
[1]; [10]
  Transpiration: 98 % of control
[1]; 500 ppm trinexapac-ethyl, day 1 after treatment
  Transpiration: 91 % of control
[1]; [11]
  Transpiration: 95 % of control
[1]; 500 ppm trinexapac-ethyl, day 3 after treatment
  Transpiration: 89 % of control
[1]; [12]
  Transpiration: 96 % of control
[1]; [13]
  Transpiration: 100 % of control
[1]; [14]
  Transpiration: 99 % of control
[1]; [15]
  Transpiration: 100 % of control
[1]; 1000 ppm trinexapac-ethyl, day 1 after treatment
  Transpiration: 92 % of control
[1]; [16]
  Transpiration: 96 % of control
[1]; 1000 ppm trinexapac-ethyl, day 3 after treatment
  Transpiration: 91 % of control
[1]; [17]
  Transpiration: 98 % of control
[1]; [18]
  Transpiration: 100 % of control
[1]; [19]
  Transpiration: 103 % of control
[1]; [20]
  Transpiration: 99 % of control
[1]; 2000 ppm trinexapac-ethyl, day 1 after treatment
  Transpiration: 95 % of control
[1]; [21]
  Transpiration: 94 % of control
[1]; 2000 ppm trinexapac-ethyl, day 3 after treatment
  Transpiration: 90 % of control
[1]; [22]
  Transpiration: 98 % of control
[1]; [23]
  Transpiration: 97 % of control
[1]; [24]
  Transpiration: 99 % of control
[1]; [25]
  Transpiration: 98 % of control
[2]; 250 ppm trinexapac-ethyl
  Leaf number: 12.0
[2]; 250 ppm trinexapac-ethyl, day 0 after treatment
  Plant height: 10.3 cm
[2]; [6]
  Growth rate: 1.7 cm/day
  Plant height: 13.6 cm
[2]; [7]
  Growth rate: 1.5 cm/day
  Plant height: 16.4 cm
[2]; [8]
  Growth rate: 2.6 cm/day
  Plant height: 28.7 cm
[2]; [9]
  Growth rate: 2.2 cm/day
  Plant height: 32.3 cm
[2]; [10]
  Growth rate: 2.7 cm/day
  Plant height: 50.6 cm
[2]; 500 ppm trinexapac-ethyl
  Leaf number: 11.7
[2]; 500 ppm trinexapac-ethyl, day 0 after treatment
  Plant height: 9.8 cm
[2]; [11]
  Growth rate: 1.7 cm/day
  Plant height: 13.1 cm
[2]; [12]
  Growth rate: 1.5 cm/day
  Plant height: 15.9 cm
[2]; [13]
  Growth rate: 2.6 cm/day
  Plant height: 28.3 cm
[2]; [14]
  Growth rate: 2.2 cm/day
  Plant height: 31.2 cm
[2]; [15]
  Growth rate: 2.6 cm/day
  Plant height: 50.7 cm
[2]; 1000 ppm trinexapac-ethyl
  Leaf number: 11.7
[2]; 1000 ppm trinexapac-ethyl, day 0 after treatment
  Plant height: 10.0 cm
[2]; [16]
  Growth rate: 1.2 cm/day
  Plant height: 12.3 cm
[2]; [17]
  Growth rate: 1.4 cm/day
  Plant height: 15.4 cm
[2]; [18]
  Growth rate: 2.4 cm/day
  Plant height: 26.7 cm
[2]; [19]
  Growth rate: 2.1 cm/day
  Plant height: 31.3 cm
[2]; [20]
  Growth rate: 2.8 cm/day
  Plant height: 52.7 cm
[2]; 2000 ppm trinexapac-ethyl
  Leaf number: 11.5
[2]; 2000 ppm trinexapac-ethyl, day 0 after treatment
  Plant height: 9.9 cm
[2]; [21]
  Growth rate: 1.2 cm/day
  Plant height: 12.2 cm
[2]; [22]
  Growth rate: 1.5 cm/day
  Plant height: 15.8 cm
[2]; [23]
  Growth rate: 2.0 cm/day
  Plant height: 23.9 cm
[2]; [24]
  Growth rate: 2.0 cm/day
  Plant height: 29.3 cm
[2]; [25]
  Growth rate: 2.7 cm/day
  Plant height: 50.6 cm
